Laboratory results: patent publication US20260226086A1, “COMPOUNDS AND COMPOSITIONS AS STAT3 DEGRADERS AND USES THEREOF” (REGENTS OF THE UNIVERSITY OF MICHIGAN, priority 2023, published 2026)

Legend:
Assay type in all cases: cell-based
SUP-M2 cells = assay: CellTiter-Glo 2.0 cell viability assay, SUP-M2; conditions: SUP-M2, 96 h, 4 days
Procedure, shortened: (§1)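 1000 cells per well exposed to serially diluted compounds for 4 days at 37 °C, 5% CO2. Viability measured by CellTiter-Glo 2.0 luminescence versus untreated cells; IC50 from four-parameter nonlinear fit of triplicate means.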

SU-DHL-1 cells = assay: CellTiter-Glo 2.0 cell viability assay, SU-DHL-1; conditions: Homo sapiens, 96 h, 4 days
Procedure, shortened: as §1

STAT3 = biological target: T1, STAT3 (Homo sapiens, UniProt P40763); assay: HiBiT assay, STAT3 degradation in STAT3-HiBiT KI HeLa cells; conditions: 24 h; for DC50: read-out: STAT3 Degradation (HeLa 24 h HiBit) DC50
T1 construct: This cell line is a clone created by using CRISPR-Cas9 to fuse HiBiT to the 3′ end of STAT3 in HeLa cells; host or cells: STAT3-HiBiT KI HeLa cell line (CRISPR-Cas9 knock-in clone)
T1 sequence (P40763 whole entry): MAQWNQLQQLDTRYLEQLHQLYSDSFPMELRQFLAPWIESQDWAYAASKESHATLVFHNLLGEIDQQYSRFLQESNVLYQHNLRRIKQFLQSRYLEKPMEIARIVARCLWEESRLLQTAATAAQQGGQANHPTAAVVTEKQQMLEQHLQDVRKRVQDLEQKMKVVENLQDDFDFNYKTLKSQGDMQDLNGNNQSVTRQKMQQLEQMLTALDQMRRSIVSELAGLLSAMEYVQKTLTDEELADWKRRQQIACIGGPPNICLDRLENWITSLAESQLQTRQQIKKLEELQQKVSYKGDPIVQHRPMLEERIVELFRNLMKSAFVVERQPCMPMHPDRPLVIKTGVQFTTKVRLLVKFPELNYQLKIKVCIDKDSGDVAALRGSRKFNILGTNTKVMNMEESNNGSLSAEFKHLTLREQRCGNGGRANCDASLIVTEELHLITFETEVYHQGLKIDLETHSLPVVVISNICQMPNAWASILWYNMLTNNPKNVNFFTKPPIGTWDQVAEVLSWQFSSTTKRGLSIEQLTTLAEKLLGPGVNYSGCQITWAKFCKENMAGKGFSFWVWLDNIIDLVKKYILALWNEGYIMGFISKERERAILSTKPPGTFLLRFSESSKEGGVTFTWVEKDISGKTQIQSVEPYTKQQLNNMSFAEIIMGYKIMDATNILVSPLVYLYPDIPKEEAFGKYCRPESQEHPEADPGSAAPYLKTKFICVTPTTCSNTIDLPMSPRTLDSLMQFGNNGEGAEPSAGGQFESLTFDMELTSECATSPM
Procedure, shortened: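 HeLa cells with CRISPR knock-in of HiBiT at the STAT3 C-terminus, 20000 cells/well, treated with serial compound dilutions for 24 h at 37 °C, 5% CO2. Remaining STAT3 read by Nano-Glo HiBiT lytic luminescence versus untreated cells; IC50 from four-parameter nonlinear fit of triplicate means.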

SMILES: CC(=O)N1CC[C@H]2CC[C@@H](C(=O)N[C@@H](CCC(N)=O)COc3cccc(CCCc4cn([C@H](C(=O)N5C[C@H](O)C[C@H]5C(=O)N[C@@H](CCN5CCOCC5)c5ccc(-c6scnc6C)cc5)C(C)(C)C)nn4)c3Cl)N2C(=O)[C@@H](NC(=O)c2cc3cc(C(=O)P(=O)(O)O)ccc3[nH]2)C1 [Compound 4, (2-(((5S,8S,10aR)-3-acetyl-8-(((S)-5-amino-1-(2-chloro-3-(3-(1-((S)-1-((2S,4R)-4-hydroxy-2-(((S)-1-(4-(4-methylthiazol-5-yl)phenyl)-3-morpholinopropyl)carbamoyl)pyrrolidin-1-yl)-3,3-dimethyl-1-oxobutan-2-yl)-1H-1,2,3-triazol-4-yl)propyl)phenoxy)-5-oxopentan-2-yl)carbamoyl)-6-oxodecahydropyrrolo[1,2-a][1,5]diazocin-5-yl)carbamoyl)-1H-indole-5-carbonyl)phosphonic acid]
- IC50 (SUP-M2 cells): 10 to 100 nM
- IC50 (SU-DHL-1 cells): 10 to 100 nM
- Dmax at 1 µM (STAT3): > 80%
- DC50 (STAT3): 10 to 100 nM

SMILES: CCS(=O)(=O)c1ccc(CNC(=O)[C@H](CCC(N)=O)NC(=O)[C@@H]2CC[C@@H]3CCN(C(=O)CCCCc4cn([C@H](C(=O)N5C[C@H](O)C[C@H]5C(=O)N[C@@H](C)c5ccc(-c6scnc6C)cc5)C(C)(C)C)nn4)C[C@H](NC(=O)c4cc5cc(C(=O)P(=O)(O)O)ccc5[nH]4)C(=O)N32)cc1 [Compound 11, (2-(((5S,8S,10aR)-8-(((S)-5-amino-1-((4-(ethylsulfonyl)benzyl)amino)-1,5-dioxopentan-2-yl)carbamoyl)-3-(5-(1-((S)-1-((2S,4R)-4-hydroxy-2-(((S)-1-(4-(4-methylthiazol-5-yl)phenyl)ethyl)carbamoyl)pyrrolidin-1-yl)-3,3-dimethyl-1-oxobutan-2-yl)-1H-1,2,3-triazol-4-yl)pentanoyl)-6-oxodecahydropyrrolo[1,2-a][1,5]diazocin-5-yl)carbamoyl)-1H-indole-5-carbonyl)phosphonic acid]
- IC50 (SUP-M2 cells): < 10 nM
- IC50 (SU-DHL-1 cells): 10 to 100 nM
- Dmax at 1 µM (STAT3): > 80%
- DC50 (STAT3): < 10 nM
